Experimental data from the OPERA property sets (Mansouri et al. 2018).

Conditions: not given

SMILES	ready biodegradability	boiling point [°C]	log10 vapour pressure (mmHg)	melting point [°C]	log10 biodegradation half-life (days)	log10 Henry constant (atm·m³/mol)	log10 Koa	log10 Koc (L/kg)
CNC(=S)S	not readily biodegradable	–	–	–	–	–	–	–
FC(F)OCC(F)(F)F	–	29.3	2.81	–	–	–	–	–
C[C@]12CC[C@H]3C(=CCc4cc(O)ccc43)[C@@H]1CCC2=O	–	–	–	239	–	–	–	–
Ic1cc(I)c(I)c(I)c1	–	–	–	148	–	–	–	–
Cc1ccc2ccc3cccc4ccc1c2c34	–	–	–	–	1.96	–	–	–
CCCCCCCCCCCCCCCCCC(=O)OC(C)C	–	–	-4.4	28	–	–	–	–
CC(CCC(=O)O)n1nc2ccccc2n1 (configuration not stated)	–	–	–	73	–	–	–	–
CCCCCCCCCCCCc1ccccc1O	not readily biodegradable	–	–	–	–	–	–	–
Cc1ccccc1C=O	–	200	–	–	–	–	–	–
NC(=O)C(F)(F)F	–	162	–	72.5	–	–	–	–
CC(C)C=CC(C)C	–	–	1.64	–	–	–	–	–
CCCCCCCCCCCCSP(SCCCCCCCCCCCC)SCCCCCCCCCCCC	not readily biodegradable	–	–	–	–	–	–	–
Brc1cncc2ccccc12	–	282	–	41.5	–	–	–	–
FC(Cl)(Br)Br	–	80.3	–	–	–	–	–	–
FC(Cl)C(F)(F)Br (configuration not stated)	–	52.5	–	–	–	–	–	–
Oc1ccc2ncccc2c1	–	360	–	195	–	–	–	–
Nc1c(Br)cc(Br)c2c1C(=O)c1ccccc1C2=O	–	–	–	221	–	–	–	–
Cc1cnc2c(C(=O)O)c(Cl)ccc2c1	–	–	–	244	–	–	–	–
c1ccc2cc(-c3ccc4ccccc4c3)ccc2c1	–	452	–	188	–	–	–	–
C=C(CC(=O)OCC)C(=O)OCC	–	228	–	58.5	–	–	–	–
FC(F)(F)C(Cl)(Cl)C(Cl)(Cl)C(F)(F)F	–	131	–	83.5	–	–	–	–
CN1[C@@H]2CC[C@H]1C[C@@H](O)C2	–	237	–	86.5	–	–	–	–
CC1=NNC(=O)N(/N=C/c2cccnc2)C1	–	–	–	217	–	–	–	–
Nc1ccc(O)c(C(=O)O)c1	–	–	–	283	–	–	–	–
Cc1ccc(O)cc1[N+](=O)[O-]	not readily biodegradable	–	–	–	–	–	–	–

SMILES	ready biodegradability	boiling point [°C]	log10 vapour pressure (mmHg)	melting point [°C]	log10 biodegradation half-life (days)	log10 Henry constant (atm·m³/mol)	log10 Koa	log10 Koc (L/kg)
O=C=Nc1ccccc1	–	163	0.41	–	–	–	–	–
C1=CCCCC1	not readily biodegradable	82.9	1.95	-104	–	-1.34	2.83	–
CCCCc1c(C)nc(NCC)nc1O	–	–	-5.7	160	–	–	–	–
Clc1cccc(C(Cl)(Cl)Cl)c1	–	255	–	0.6	–	–	–	–
CCc1ccc2ccccc2n1	–	246	–	–	–	–	–	–
C[C@@H](O)CC(=O)O	–	–	–	47.5	–	–	–	–
CCN(C)CC	–	66	–	-196	–	–	–	–
CC1(C)CC(NCCCCCCNC2CC(C)(C)NC(C)(C)C2)CC(C)(C)N1	–	–	–	64	–	–	–	–
Cc1cc(C(=O)O)ccc1N	–	–	–	170	–	–	–	–
C1CN(CCN2CCOCC2)CCO1	–	285	–	75	–	–	–	–
COCC#N	–	119	–	–	–	–	–	–
[N-]=[N+]=Nc1ccc(Cl)cc1	–	–	–	20	–	–	–	–
CCCCCCCC/C=C\CCCCCCCCN	–	–	–	246	–	–	–	–
C=CC(=O)NC(C)(C)C	–	–	–	128	–	–	–	–
Clc1cccc(Cl)c1Oc1ccccc1	–	–	-2.89	–	–	–	–	–
Cc1cc(OC(=O)N(C)C)n(-c2ccccc2)n1	–	–	–	50	–	–	–	–
CCCC1CCCCC1	–	157	0.622	-94.9	–	–	–	–
O=C1C=C(Cl)C(=O)C(Cl)=C1	–	–	–	123	–	–	–	–
CCNc1nsc2ccccc12	–	–	–	78	–	–	–	–
C[n+]1cc2c3c(ccc2c2ccc4cc5c(cc4c21)OCO5)OCO3	–	–	–	266	–	–	–	–
CCOC(=O)c1ccc(OC)c(OC)c1	–	296	–	43.5	–	–	–	–
O=C(O)c1c(F)c(F)c(F)c(F)c1C(=O)O	–	–	–	163	–	–	–	–
CC(C)=CC(=O)Cl	–	146	–	–	–	–	–	–
O=Nc1c(O)ccc2ccccc12	–	–	–	110	–	–	–	–
Cc1cccc(C)c1N	not readily biodegradable	215	-0.886	11.2	–	–	–	–

SMILES	ready biodegradability	boiling point [°C]	log10 vapour pressure (mmHg)	melting point [°C]	log10 biodegradation half-life (days)	log10 Henry constant (atm·m³/mol)	log10 Koa	log10 Koc (L/kg)
COC(=O)C=Cc1ccccc1	–	260	-1.46	36	–	–	–	–
O=Cc1cc([N+](=O)[O-])ccc1O	–	–	–	129	–	–	–	–
Clc1cccc(-c2ccccc2)c1	–	284	-2.13	16	–	-3.21	6.82	–
O=C1CCc2ccccc21	–	243	–	42	–	–	–	–
CC(=O)c1ccc(O)cc1	readily biodegradable	–	–	110	–	–	–	–
CS(=O)(=O)O	readily biodegradable	–	-3.37	20	–	–	–	–
CCCCOC(=O)CCC(C)=O	–	238	–	–	–	–	–	–
CCCCCCCO	readily biodegradable	176	-0.665	-34	–	-4.73	–	1.14
COC(=O)C=C(Cl)C(=O)OC	–	224	–	–	–	–	–	–
N[C@@H](CCC(=O)O)C(=O)O	readily biodegradable	–	-7.77	–	–	–	–	–
CN(C)c1ccc2c(c1)Sc1cc(N(C)C)ccc1N2C(=O)c1ccccc1	–	–	–	195	–	–	–	–
Clc1ccc2c(c1)Oc1cc(Cl)ccc1O2	–	–	-5.98	151	–	–	–	–
CC1=CC(=O)O[C@@]2(C1)C[C@H]1CC[C@@H]2CN1C	–	–	–	54.5	–	–	–	–
CC(C)[C@@H]1CC[C@@H](C)CC1=O	–	207	–	-6	–	–	–	–
COCCl	readily biodegradable	59.5	1.48	-104	–	–	–	–
O=C(O)C=Cc1ccc(O)cc1	readily biodegradable	–	–	–	–	–	–	–
FC(F)OC(F)F	–	6.35	–	-123	–	–	–	–
Cc1cc2ccccc2c2ccc3ccccc3c12	–	–	–	118	–	–	–	–
CCCCCCCCCCCCOC(=O)CCSCCC(=O)OCCCCCCCCCCCC	readily biodegradable	–	–	41	–	–	–	–
CC[C@H]1OC(=O)[C@H](C)[C@@H](O[C@H]2C[C@@](C)(OC)[C@@H](O)[C@H](C)O2)[C@H](C)[C@@H](O[C@@H]2O[C@H](C)C[C@H](N(C)C)[C@H]2O)[C@](C)(O)C[C@@H](C)CN(C)[C@H](C)[C@@H](O)[C@]1(C)O	–	–	–	114	–	–	–	–
C=CCOCC1CO1 (configuration not stated)	–	154	–	–	–	–	–	–
C=Cc1ccccn1	not readily biodegradable	160	0.444	–	–	–	–	–
COC1CCC=CO1 (configuration not stated)	–	118	1.04	16	–	–	–	–
CCOC(=O)C1=NN(c2ccc(Cl)cc2Cl)C(C)(C(=O)OCC)C1 (configuration not stated)	–	–	-7.33	51	–	–	–	–
COc1cc(Oc2ccc(Cl)cc2Cl)ccc1[N+](=O)[O-]	–	–	-4.85	114	–	–	–	–

SMILES	ready biodegradability	boiling point [°C]	log10 vapour pressure (mmHg)	melting point [°C]	log10 biodegradation half-life (days)	log10 Henry constant (atm·m³/mol)	log10 Koa	log10 Koc (L/kg)
CCC(=O)OC(=O)CC	readily biodegradable	170	0.134	-45	–	–	–	–
Oc1c(Br)cc(Br)cc1Br	readily biodegradable	286	–	95.5	–	–	–	–
CCN(CC)CCNC(=O)c1cc(S(C)(=O)=O)ccc1OC	–	–	–	124	–	–	–	–
CCOC(=O)c1cccc(Br)c1	–	261	–	–	–	–	–	–
CCc1cn([C@H]2C[C@H](O)[C@@H](CO)O2)c(=O)[nH]c1=O	–	–	–	152	–	–	–	–
CC1C=CCC1 (configuration not stated)	–	64.9	–	–	–	–	–	–
O=Cc1ccccc1O[C@@H]1O[C@H](CO)[C@@H](O)[C@H](O)[C@H]1O	–	–	–	175	–	–	–	–
CC(C(N)=O)n1nc2ccccc2n1 (configuration not stated)	–	–	–	170	–	–	–	–
C=CCCCCl	–	105	–	–	–	–	–	–
O=[N+]([O-])c1ccc(Sc2ccc([N+](=O)[O-])cc2)cc1	–	–	–	160	–	–	–	–
Nc1ccccc1Nc1ccccc1	–	313	–	79.5	–	–	–	–
C=CCC(C(C)=O)C(C)=O	–	199	–	–	–	–	–	–
CCc1nccnc1OC	–	–	–	–	–	-4.83	–	–
CC(C)(CO)[N+](=O)[O-]	–	–	–	89.5	–	–	–	–
Nc1ccc([N+](=O)[O-])cc1O	–	–	–	208	–	–	–	–
Clc1cc(Cl)c(-c2cc(Cl)c(Cl)cc2Cl)cc1Cl	–	–	-5.46	–	–	-4.64	9.73	5.58
CCCC(C)C	readily biodegradable	60.2	2.32	–	–	–	–	–
Cc1ccc(C#N)cc1	–	217	-0.504	29.5	–	–	–	–
O=C(O)Cc1cccc(Cl)c1	–	–	–	78.8	–	–	–	–
COCCN(C(=O)CCl)c1c(C)cccc1C	–	320	-4.95	46	–	–	–	–
CCOC(=O)NC	–	170	-0.0435	–	–	–	–	–
c1cc2cccc3c4cccc5cccc(c(c1)c23)c54	not readily biodegradable	–	-8.28	274	2.95	–	–	–
Cn1ccccc1=S	–	–	–	89.5	–	–	–	–
Cc1ccc(Cl)cc1	not readily biodegradable	162	0.43	7.5	–	–	–	–
NCC(F)(F)C(F)(F)F	–	49	–	–	–	–	–	–

Same assay, conditions: fish

SMILES	log10 biotransformation half-life (days)	log10 BCF
Cc1ccc2ccc3cccc4ccc1c2c34	0.11	–
Cc1ccc(O)cc1[N+](=O)[O-]	-0.8	1
Clc1cc(Cl)c2c(oc3c(Cl)cc(Cl)c(Cl)c32)c1Cl	–	2.96
COc1cc(Oc2ccc(Cl)cc2Cl)ccc1[N+](=O)[O-]	–	3.59
Oc1c(Br)cc(Br)cc1Br	–	2.71
Clc1cc(Cl)c(-c2cc(Cl)c(Cl)cc2Cl)cc1Cl	2.55	5.43
c1cc2cccc3c4cccc5cccc(c(c1)c23)c54	-0.06	–
Cc1ccc(Cl)cc1	-0.83	1.76
